Literature values, collected in patent US7053240B2, “Process for synthesizing disulfides” (BioNumerik Pharmaceuticals, Inc., priority 2003, dated 2006).

Legend:
[1] = accepted value
mice = conditions: intravenously, doses higher than 3750 mg/kg
dogs = conditions: intravenously, doses higher than 3750 mg/kg

Row | SMILES | oral LD50 [1] [mg/kg] | adverse effects (mice) | adverse effects (dogs)
1 | [Cl-].[Na+] [common table salt] | 3750 | – | –
2 | O=S(=O)(O)CCSSCCS(=O)(=O)O [Dimesna, disodium 2,2′-dithiobis ethane sulfonate] | – | no adverse effects | no adverse effects
